Assay [1] relates to HeLa cells. It is filed as cell-based, human. Conditions: data not shown.
The test system of assay [2] is HeLa cells. Format: cell-based, human. Conditions: TMRM; for induction of mitochondrial depolarization / percentage of cells with depolarized mitochondria: difference from untreated cells: 1 hour; for percentage of cells with depolarized mitochondria: difference from untreated cells: Student's t test, Figure 5B. The protocol:
Figure 5 Effect of AA on mitochondrial potential of HeLa cells. A, bar graphs report the ratio between the CRC detected in the presence (CRC) and absence (CRC0) of increasing concentrations of AA in mitochondria from HeLa cells. […] B,C cytofluorimetric analysis of mitochondrial depolarization. HeLa cells were incubated with the TMRM probe and treated for 1 hour with the reported concentrations of either clotrimazole (CTM) or TAT-HK peptide. An unrelated TAT-linked peptide (TAT-Ctr) is used as a negative control. […] Bar graphs in B display the percentage of cells with depolarized mitochondria (mean±SD, n = 4). […] Histograms in C report a representative experiment, where cells with polarized and depolarized mitochondria are indicated in red and grey, respectively.
(§1) Flow cytometry recordings were performed as described, [51], [52]. Briefly, at the end of the incubation, cells were resuspended in 135 mM NaCl, 10 mM HEPES, 5 mM CaCl2 and incubated at 37°C in either TMRM (10 nM) to detect mitochondrial depolarization (reduced TMRM staining), or in FITC-conjugated Annexin-V and propidium iodide (PI, 1 µg/ml), to detect phosphatidylserine exposure on the cell surface (increased FITC-conjugated Annexin-V staining) and loss of plasma membrane integrity (PI permeability and staining). […] Samples were analyzed on a FACSCanto II flow cytometer (Becton Dickinson, San Diego, CA, USA). Data acquisition and analysis were performed using FACSDiva software.

The test system of assay [3] is organic anion-transporting polypeptide family. Conditions: also our unpublished data; ref [8]; cited from earlier work. The source says: (§2) Antamanide (AA) is a monocyclic, homodetic decapeptide isolated from the poisonous mushroom Amanita phalloides. […] Little is known about the biochemical mechanisms underlying these diverse bioactivities. […] The CyP chaperone activity, i.e. the isomerization to the cis form of the peptidyl bonds preceding each proline, is involved in folding and association processes required for proteins to perform thei ...

Assay [4] relates to mitochondrial permeability transition pore (PTP). Format: biochemical, mouse. The procedure:
A, chemical structure of AA. B, D, Ca^2+ retention capacity (CRC) either in phosphate (Pi) buffer (B) or in arsenate (Asi) buffer (D). Calcium Green-5N fluorescence is reported as arbitrary units on the y axis.
Mitochondria were isolated either from livers of C57BL/6 mice through sequential centrifugations, or from cells, as described. To obtain mitochondria, cells were disrupted with a glass-Teflon potter in a buffer composed by 250 mM sucrose, 10 mM Tris-HCl, 0.1 mM EGTA-Tris, pH 7.4. Nuclei and plasma membrane fractions were separated by a first mild centrifugation (700× g, 10 min), and mitochondria were then spinned down at a higher speed (7000× g, 10 min). All procedures were carried out at 0–4°C.
PTP opening was detected as a fluorescence increase.

The test system is the same in assay [5]. Conditions: ref [30]; cited from earlier work. From the text:
AA is the cyclodecapeptide c([…] (Figure 1A). To evaluate its effect on the PTP, we performed Ca^2+ retention capacity (CRC) assays on isolated mouse liver mitochondria (MLM).

The test system of assay [6] is mouse model of the disease. Conditions: ref [38]; cited from earlier work. From the text:
(§3) CyP-D is a promising pharmacological target.

Assay [7] has as its system muscle samples derived from patients affected by Ullrich muscular dystrophy. Conditions: ref [37]; cited from earlier work.
Description: as §3

Assay [8] relates to HeLa cells. It is filed as cell-based, human. The protocol: A, cytofluorimetric analysis of cell death induction in HeLa cells treated for 1 hour with TAT-HK. […] TAT-Ctr was used as a negative control. Cells were double stained with Annexin V-FITC and propidium iodide (PI), to respectively evaluate apoptosis induction as phosphatidylserine exposure on the cell surface (increased Annexin V-FITC staining) and cell death as plasma membrane permeabilization (increased PI staining). We considered Annexin V^+ as early/intermediate apoptotic cells; PI^+ as necrotic cells; double stained as late apoptotic cells. Bar graphs display the percentage of each cell population (mean±SD, n = 4; double positive cells are added to both bars). […] B, histograms reporting a representative experiment, where viable cells are indicated in red, PI^+- and Annexin V^+-cells are indicated in grey and green, respectively.
as §1

The subject of assay [9] is lymphocyte activation. Conditions: via CyP-A/CsA complex; ref [36]; cited from earlier work. The source says: (§4) CyP-D is a promising pharmacological target. It is part of the CyP protein family, composed by ubiquitous and extremely conserved proteins located in different subcellular compartments, [35].
The subject of assay [10] is HCV/HIV. Conditions: ref [35]; cited from earlier work.
Description: as §4

For assay [11], the system named is multidrug resistance proteins. Conditions: ref [50]; cited from earlier work.
In assay [12] the test system is immunosuppressant. Details: method as in PMID 1494502, PMID 8441706. Conditions: ref [10], [11]; cited from earlier work.
Description: as §2

The test system of assay [13] is tumor necrosis; metastasis formation. Conditions: ref [45]; cited from earlier work.
The test system of assay [14] is malignancies. Conditions: ref [47]; cited from earlier work.
Assay [15] deals with mitochondrial permeability transition pore (PTP). Conditions: ref [37]; cited from earlier work. The procedure: Briefly, at the end of the incubation, cells were resuspended in 135 mM NaCl, 10 mM HEPES, 5 mM CaCl2 and incubated at 37°C in either TMRM (10 nM) to detect mitochondrial depolarization (reduced TMRM staining), or in FITC-conjugated Annexin-V and propidium iodide (PI, 1 µg/ml), to detect phosphatidylserine exposure on the cell surface (increased FITC-conjugated Annexin-V staining) and loss of plasma membrane integrity (PI permeability and staining).

In assay [16] the test system is HeLa cells. Format: cell-based, human. Conditions: phalloidin 50 µg/ml, 1 hour, TMRM, Figure S1B.
Where [17] appears, read: 30 min preincubation, then TAT-HK 1 hour.

Entries after “also recorded” stand apart in the source; their conditions may differ. Like-named read-outs stand apart in the source and are kept apart here.

With `Clc1ccccc1C(c1ccccc1)(c1ccccc1)n1ccnc1` [CTM, clotrimazole], the “cell death induction by clotrimazole” value in [1] (compared with TAT-HK) is “A similar degree of cell death was observed”. For the same compound, the “induction of mitochondrial depolarization” value in [2] is “marked mitochondrial depolarization”. Moreover, the “percentage of cells with depolarized mitochondria: difference from untreated cells” value in assay [2] (n = 4) is “significant difference (Student's t test analysis; #: p<0.01)”.
Regarding `N#CC(C#N)=NNc1ccc(OC(F)(F)F)cc1` [FCCP], in assay [2] (FCCP 4 µM), the “mitochondrial depolarization (positive control)” value is “full mitochondrial depolarization”.
Take `C=CC[C@@H]1/C=C(\C)C[C@H](C)C[C@H](OC)[C@H]2O[C@@](O)(C(=O)C(=O)N3CCCC[C@H]3C(=O)O[C@H](/C(C)=C/[C@@H]3CC[C@@H](O)[C@H](OC)C3)[C@H](C)[C@@H](O)CC1=O)[C@H](C)C[C@@H]2OC` [FK506]: in assay [3], the “inhibition of cell uptake of phalloidin” value is “cell uptake of phalloidin was also inhibited”.
With `COC1=C(OC)C(=O)C(C)=CC1=O` [Ub0, Ubiquinone 0, reference compound], the “CRC/CRC0: difference from CRC of untreated mitochondria” value in assay [4] (AA at various concentrations, Figure 1C and D, mean±SD of at least 4 experiments, Student's t test) is “significant difference (Student's t test analysis; *: p<0.01)”. For the same compound, the “PTP inhibition in arsenate” value in assay [4] (arsenate (Asi) buffer, Figure 1B, D) is on record as “inhibits the pore also in Asi buffer, albeit to a lesser extent”. The “PTP inhibition when phosphate is substituted with arsenate” value in assay [5] was “the effect of CsA, but not of Ub0, is abolished”.
Consider `CO[C@H]1C[C@@H]2CC[C@@H](C)[C@@](O)(O2)C(=O)C(=O)N2CCCC[C@H]2C(=O)O[C@H]([C@H](C)C[C@@H]2CC[C@@H](O)[C@H](OC)C2)CC(=O)[C@H](C)/C=C(\C)[C@@H](O)[C@@H](OC)C(=O)[C@H](C)C[C@H](C)/C=C/C=C/C=C/1C` [rapamycin], for which the “inhibition of cell uptake of phalloidin” value in [3] is on record as “cell uptake of phalloidin was also inhibited”.
Regarding Debio-025, the “mitochondrial function and apoptotic rate” value in assay [6] was “normalizes mitochondrial function and apoptotic rate”; in [7] it was “normalizes mitochondrial function and apoptotic rate”.
As for “MIASHLLAYFFTELNbA-GYGRKKRRQRRRG [TAT-HK, HKII-displacing peptide]”, the cell death induction result in assay [8] (TAT-HK 1 hour, Annexin V / propidium iodide) is “fast and dramatic cell death, mainly necrosis”. Besides, the “number of PI+ cells: difference from untreated cells” value in assay [8] (TAT-HK 1 hour, n = 4, Student's t test #: p<0.01) is recorded as “significantly increased”. For the same compound, the “induction of mitochondrial depolarization” value in [2] was “marked mitochondrial depolarization”. Moreover, the “percentage of cells with depolarized mitochondria: difference from untreated cells” value in assay [2] (n = 4) is “significant difference (Student's t test analysis; #: p<0.01)”.
With cyclosporin A [CsA], the “inhibition of lymphocyte activation” value in assay [9] is on record as “inhibits lymphocyte activation”. The “prevention of HCV/HIV replication” value in [10] is listed as “prevent HCV/HIV replication”. For the same compound, the “inhibition of multidrug resistance proteins” value in assay [11] is “inhibits multidrug resistance proteins”. Also, in [8] (setting [17]), the “effect on TAT-HK-induced necrotic response” value is recorded as “virtually abolished the necrotic response” and the “residual apoptosis after TAT-HK” value is “a small fraction of cells undergoing apoptosis was still detectable”. Also, the “protection from TAT-HK induced death” value in [8] (30 min preincubation, then TAT-HK 1 hour, n = 4, Student's t test *: p<0.01) is given as “significantly protected from TAT-HK induced death”. Moreover, the “inhibition of clotrimazole-induced cell death” value in assay [1] (clotrimazole) was “inhibited the process”. Moreover, the “reversal of CTM-induced mitochondrial depolarization” value in [2] (30 min preincubation, then CTM 1 hour, n = 4) is listed as “significantly decreased the percentage of cells with mitochondria depolarized by CTM (Student's t test analysis; *: p<0.01); also recorded: similarly reverted”. In assay [2] (30 min preincubation, then TAT-HK 1 hour, n = 4), the “reversal of TAT-HK-induced mitochondrial depolarization” value is “similarly reverted”. Besides, in assay [12], the immunosuppressant activity result is reported as “act as immunosuppressants”. In addition, in assay [13], the “effect on tumor necrosis and metastasis” value is “induces tumor necrosis and abrogates metastasis formation”. Also, the “effect on progression of malignancies” value in assay [14] is “can enhance the progression of certain malignancies”.
As to cyclosporin H, the “activity on the PTP” value in assay [15] was “inactive on the PTP”.
Regarding phalloidin [reference compound], the “activity on the PTP” value in assay [4] (phalloidin 50 µg/ml) was “inactive on the PTP”. For the same compound, the “effect on mitochondrial Ca2+ retention capacity” value in assay [4] (phalloidin 50 µg/ml, MLM, 3 experiments, Figure S1A) is on record as “could not detect any effect”. Also, the “effect on mitochondrial potential” value in assay [16] is reported as “could not detect any effect”.

The values are drawn from paper PMC3030572, “Antamanide, a Derivative of Amanita phalloides, Is a Novel Inhibitor of the Mitochondrial Permeability Transition Pore” (PLoS ONE, 2011).
